# Data taken from US9458110B2, “Phenylpyrazole derivatives as potent ROCK1 and ROCK2 inhibitors” (BRISTOL-MYERS SQUIBB COMPANY, priority 2013, dated 2016).
# How the values were obtained:
# ROCK1 = ROCK1 (Homo sapiens (Human), UniProt Q13464); experiment: ROCK assay (Caliper LABCHIP peptide phosphorylation), ROCK1; assay type: biochemical; conditions: 5 μM ATP, 1.5 μM peptide substrate;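 also: Read-out is separation of phosphorylated from unphosphorylated peptide, with kinase activity inhibition computed at every concentration of a dose-response series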
# ROCK2 = ROCK2 (Homo sapiens (Human), UniProt O75116); experiment: ROCK assay (Caliper LABCHIP peptide phosphorylation), ROCK2; assay type: biochemical; conditions: 5 μM ATP, 1.5 μM peptide substrate;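 also: reaction stopped with EDTA, then phosphorylated and unphosphorylated peptide resolved by microfluidic electrophoresis, kinase inhibition computed at each compound concentration in dose-response series, DMSO under 2%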
# ROCK2, sequence (O75116 whole entry, species assumed): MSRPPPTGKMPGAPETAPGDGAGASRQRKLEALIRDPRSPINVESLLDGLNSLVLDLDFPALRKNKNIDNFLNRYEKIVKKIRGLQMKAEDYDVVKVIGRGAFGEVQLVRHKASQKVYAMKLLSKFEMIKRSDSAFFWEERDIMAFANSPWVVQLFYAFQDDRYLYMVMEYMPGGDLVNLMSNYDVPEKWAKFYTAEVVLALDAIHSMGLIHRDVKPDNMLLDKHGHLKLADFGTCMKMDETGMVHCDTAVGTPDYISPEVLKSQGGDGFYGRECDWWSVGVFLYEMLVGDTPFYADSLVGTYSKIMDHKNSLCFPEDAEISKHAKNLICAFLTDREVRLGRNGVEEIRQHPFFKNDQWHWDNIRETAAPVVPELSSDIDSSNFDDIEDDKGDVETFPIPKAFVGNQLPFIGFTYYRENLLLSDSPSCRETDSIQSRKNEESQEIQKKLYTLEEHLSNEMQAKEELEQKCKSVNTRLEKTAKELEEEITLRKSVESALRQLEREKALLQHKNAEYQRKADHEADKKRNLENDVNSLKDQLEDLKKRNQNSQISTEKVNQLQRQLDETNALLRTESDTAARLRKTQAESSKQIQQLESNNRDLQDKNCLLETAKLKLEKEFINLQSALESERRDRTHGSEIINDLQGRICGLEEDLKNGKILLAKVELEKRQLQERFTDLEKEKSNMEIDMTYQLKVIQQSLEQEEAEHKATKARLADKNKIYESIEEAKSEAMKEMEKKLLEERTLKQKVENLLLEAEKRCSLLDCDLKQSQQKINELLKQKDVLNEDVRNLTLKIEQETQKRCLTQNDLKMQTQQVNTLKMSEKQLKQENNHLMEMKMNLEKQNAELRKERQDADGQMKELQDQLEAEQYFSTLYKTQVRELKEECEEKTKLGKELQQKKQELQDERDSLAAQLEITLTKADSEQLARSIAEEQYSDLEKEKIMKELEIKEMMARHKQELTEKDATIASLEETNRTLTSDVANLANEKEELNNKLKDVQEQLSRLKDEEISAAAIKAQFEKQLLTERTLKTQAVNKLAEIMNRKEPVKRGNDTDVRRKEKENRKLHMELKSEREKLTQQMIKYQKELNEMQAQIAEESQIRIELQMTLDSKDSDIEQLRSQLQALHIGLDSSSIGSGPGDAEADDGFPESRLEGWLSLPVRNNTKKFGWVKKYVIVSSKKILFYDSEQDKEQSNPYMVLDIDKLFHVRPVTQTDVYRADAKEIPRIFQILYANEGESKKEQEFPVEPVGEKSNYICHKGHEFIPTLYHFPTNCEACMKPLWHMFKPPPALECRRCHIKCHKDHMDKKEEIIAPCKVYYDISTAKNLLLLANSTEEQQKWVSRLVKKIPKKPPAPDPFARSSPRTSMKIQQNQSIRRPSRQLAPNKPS
# ROCK1, sequence (Q13464 whole entry, species assumed): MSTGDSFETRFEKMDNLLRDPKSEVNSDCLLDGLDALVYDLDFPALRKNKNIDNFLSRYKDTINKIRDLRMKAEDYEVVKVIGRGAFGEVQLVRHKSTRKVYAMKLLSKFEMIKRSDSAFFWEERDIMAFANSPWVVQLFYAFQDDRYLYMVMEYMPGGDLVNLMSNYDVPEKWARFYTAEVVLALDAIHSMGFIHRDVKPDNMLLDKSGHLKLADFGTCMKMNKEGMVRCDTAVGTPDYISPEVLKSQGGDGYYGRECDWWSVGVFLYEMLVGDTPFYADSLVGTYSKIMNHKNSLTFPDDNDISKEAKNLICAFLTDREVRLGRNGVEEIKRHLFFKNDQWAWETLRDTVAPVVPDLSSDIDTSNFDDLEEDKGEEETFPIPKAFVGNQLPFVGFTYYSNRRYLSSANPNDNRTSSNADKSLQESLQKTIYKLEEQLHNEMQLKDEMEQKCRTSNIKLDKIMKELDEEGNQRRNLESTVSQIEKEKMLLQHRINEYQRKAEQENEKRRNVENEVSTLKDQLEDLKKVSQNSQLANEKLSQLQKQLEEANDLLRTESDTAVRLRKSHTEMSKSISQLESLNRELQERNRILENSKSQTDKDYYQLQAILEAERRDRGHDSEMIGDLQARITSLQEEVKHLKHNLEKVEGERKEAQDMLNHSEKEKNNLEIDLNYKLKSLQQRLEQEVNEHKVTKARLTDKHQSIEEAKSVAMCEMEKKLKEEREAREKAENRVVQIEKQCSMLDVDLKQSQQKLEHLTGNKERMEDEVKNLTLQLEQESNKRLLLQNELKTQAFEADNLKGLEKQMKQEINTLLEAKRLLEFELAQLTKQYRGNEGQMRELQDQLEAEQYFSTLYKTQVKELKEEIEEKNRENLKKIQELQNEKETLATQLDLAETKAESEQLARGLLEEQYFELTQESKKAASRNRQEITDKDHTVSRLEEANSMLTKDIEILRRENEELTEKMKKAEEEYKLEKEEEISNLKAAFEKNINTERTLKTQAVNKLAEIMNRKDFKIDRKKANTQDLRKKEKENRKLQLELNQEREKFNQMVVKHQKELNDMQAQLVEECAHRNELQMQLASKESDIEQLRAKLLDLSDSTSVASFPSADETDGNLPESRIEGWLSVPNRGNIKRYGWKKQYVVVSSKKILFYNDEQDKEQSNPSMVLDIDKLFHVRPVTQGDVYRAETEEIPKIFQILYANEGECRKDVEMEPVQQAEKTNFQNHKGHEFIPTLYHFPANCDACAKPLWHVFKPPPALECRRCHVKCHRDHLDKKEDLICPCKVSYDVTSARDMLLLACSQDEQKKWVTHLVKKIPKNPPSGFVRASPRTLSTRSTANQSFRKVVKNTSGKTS
IC50 (ROCK1),IC50 (ROCK2),SMILES
17.7 nM,8.99 nM,"COc1cc(C(=O)NC(C)c2ccccc2Cl)ccc1-c1cn[nH]c1 (racemic) [Example 4, (+/−)-N-(1-(2-chlorophenyl)ethyl)-3-methoxy-4-(1H-pyrazol-4-yl) benzamide]"
30.1 nM,8.52 nM,"COc1cc(C(=O)N[C@H]2C[C@@H]2c2ccccc2)ccc1-c1cn[nH]c1 (racemic) [Example 68, (+/−)-3-methoxy-N-(trans-2-phenyl-cyclopropyl)-4-(1H-pyrazol-4-yl)benzamide]"
156 nM,28.3 nM,"COc1cc(C(=O)NC(C)c2cccc(CN3CCN(C)CC3)c2)ccc1-c1cn[nH]c1 (racemic) [Example 81, (+/−)-3-methoxy-N-(1-(3-((4-methylpiperazin-1-yl)methyl)phenyl)ethyl)-4-(1H-pyrazol-4-yl)benzamide]"
110 nM,53.3 nM,"CC(NC(=O)c1ccc(-c2cn[nH]c2)c(C(F)F)c1)c1ccccc1F (racemic) [Example 299, 3-(Difluoromethyl)-N-(1-(2-fluorophenyl)ethyl)-4-(1H-pyrazol-4-yl)benzamide]"
108 nM,77.1 nM,"CC(NC(=O)c1ccc(-c2cn[nH]c2)c(C(F)F)c1)c1ccccc1F (single isomer, unassigned) [Example 300, 3-(Difluoromethyl)-N-(1-(2-fluorophenyl)ethyl)-4-(1H-pyrazol-4-yl)benzamide]"
582 nM,361 nM,"CC(NC(=O)c1ccc(-c2cn[nH]c2)c(C(F)F)c1)c1ccccc1F (single isomer, unassigned) [Example 301, 3-(Difluoromethyl)-N-(1-(2-fluorophenyl)ethyl)-4-(1H-pyrazol-4-yl)benzamide]"
53.7 nM,21.4 nM,"COC(=O)CC(NC(=O)c1ccc(-c2cn[nH]c2)c(OC)c1)c1ccccc1 (stereo in doubt) [Example 92, methyl (3R)-3-{[3-methoxy-4-(1H-pyrazol-4-yl)phenyl] formamido}-3-phenyl-propanoate]"
6.68 nM,2.32 nM,"COc1cc(C(=O)NC(C)c2cccc3ccccc23)ccc1-c1cn[nH]c1 (stereo in doubt) [Example 172, 3-methoxy-N-[(1R)-1-(naphthalen-1-yl)ethyl]-4-(1H-pyrazol-4-yl)benzamide]"
72.4 nM,27.2 nM,"COc1cc(C(=O)NC(C)c2ccccc2OC)ccc1-c1cn[nH]c1 (stereo in doubt) [Example 173, 3-methoxy-N-[(1R)-1-(2-methoxyphenyl)ethyl]-4-(1H-pyrazol-4-yl)benzamide]"
13.9 nM,4.73 nM,"COc1cc(C(=O)NC2(c3ccccc3Cl)CC2)ccc1-c1cn[nH]c1 [Example 2, N-(1-(2-chlorophenyl)cyclopropyl)-3-methoxy-4-(1H-pyrazol-4-yl)benzamide]"
–,0.85 nM,"COc1cc(C(=O)NCc2cccc(O)c2)ccc1-c1cn[nH]c1 [Example 6, N-(3-hydroxybenzyl)-3-methoxy-4-(1H-pyrazol-4-yl)benzamide]"
–,0.85 nM,"COC(=O)c1cccc(CNC(=O)c2ccc(-c3cn[nH]c3)c(OC)c2)c1 [Example 8, methyl 3-((3-methoxy-4-(1H-pyrazol-4-yl)benzamido)methyl)benzoate]"
155 nM,61.9 nM,"COc1cc(C(=O)NCc2csc(-c3ccccc3)n2)ccc1-c1cn[nH]c1 [Example 9, 3-methoxy-N-((2-phenylthiazol-4-yl)methyl)-4-(1H-pyrazol-4-yl)benzamide]"
107 nM,44.5 nM,"COc1cc(C(=O)NC(CN2CCOCC2)c2ccccc2)ccc1-c1cn[nH]c1 (stereo not shown) [Example 10, 3-methoxy-N-(2-morpholino-1-phenylethyl)-4-(1H-pyrazol-4-yl)benzamide]"
108 nM,–,"COc1cc(C(=O)NC(CNC(=O)OC(C)(C)C)c2ccccc2)ccc1-c1cn[nH]c1 (stereo not shown) [Example 11, tert-butyl (2-(3-methoxy-4-(1H-pyrazol-4-yl)benzamido)-2-phenylethyl) carbamate]"
147 nM,77.1 nM,"COc1cc(C(=O)NC(CN2CCN(C)CC2)c2ccccc2)ccc1-c1cn[nH]c1 (stereo not shown) [Example 13, 3-methoxy-N-(2-(4-methylpiperazin-1-yl)-1-phenylethyl)-4-(1H-pyrazol-4-yl)benzamide]"
243 nM,86.4 nM,"COc1cc(C(=O)NC(CN2CCCC2)c2ccccc2)ccc1-c1cn[nH]c1 (stereo not shown) [Example 14, 3-methoxy-N-(1-phenyl-2-(pyrrolidin-1-yl)ethyl)-4-(1H-pyrazol-4-yl)benzamide]"
184 nM,60.4 nM,"COc1cc(C(=O)NCc2ccccn2)ccc1-c1cn[nH]c1 [Example 15, 3-methoxy-4-(1H-pyrazol-4-yl)-N-(pyridin-2-ylmethyl) benzamide]"
556 nM,438 nM,"COc1cc(C(=O)NCc2nc3ccccc3s2)ccc1-c1cn[nH]c1 [Example 16, N-(benzo[d]thiazol-2-ylmethyl)-3-methoxy-4-(1H-pyrazol-4-yl)benzamide]"
8.42 nM,4.01 nM,"COc1cc(C(=O)NCc2cccc(F)c2)ccc1-c1cn[nH]c1 [Example 17, N-(3-fluorobenzyl)-3-methoxy-4-(1H-pyrazol-4-yl)benzamide]"
334 nM,129 nM,"COc1cc(C(=O)NCc2cccc(-c3ccccc3)c2)ccc1-c1cn[nH]c1 [Example 18, N-([1,1′-biphenyl]-3-ylmethyl)-3-methoxy-4-(1H-pyrazol-4-yl)benzamide]"
104 nM,23.8 nM,"COc1cc(C(=O)NCc2cccnc2)ccc1-c1cn[nH]c1 [Example 19, 3-methoxy-4-(1H-pyrazol-4-yl)-N-(pyridin-3-ylmethyl) benzamide]"
10.5 nM,2.24 nM,"COc1cc(C(=O)NC(C)c2ccccc2)ccc1-c1cn[nH]c1 (stereo not shown) [Example 20, 3-methoxy-N-(1-phenylethyl)-4-(1H-pyrazol-4-yl)benzamide]"
85.8 nM,60.2 nM,"COc1cc(C(=O)NCc2ccccc2OC(F)(F)F)ccc1-c1cn[nH]c1 [Example 22, 3-methoxy-4-(1H-pyrazol-4-yl)-N-(2-(trifluoro-methoxy)benzyl) benzamide]"
7.36 nM,2.13 nM,"COc1cc(C(=O)NCc2ccccc2C)ccc1-c1cn[nH]c1 [Example 23, 3-methoxy-N-(2-methylbenzyl)-4-(1H-pyrazol-4-yl)benzamide]"
37.4 nM,15.6 nM,"COc1cc(C(=O)NCCc2ccc(F)cc2)ccc1-c1cn[nH]c1 [Example 24, N-(4-fluorophenethyl)-3-methoxy-4-(1H-pyrazol-4-yl)benzamide]"
–,0.85 nM,"CNC(=O)c1cccc(CNC(=O)c2ccc(-c3cn[nH]c3)c(OC)c2)c1 [Example 65, 3-Methoxy-N-(3-(methylcarbamoyl)benzyl)-4-(1H-pyrazol-4-yl)benzamide]"
35.8 nM,–,"COc1cc(C(=O)NC(C)Cc2ccc(F)cc2)ccc1-c1cn[nH]c1 (stereo not shown) [Example 111, N-[1-(4-fluorophenyl)propan-2-yl]-3-methoxy-4-(1H-pyrazol-4-yl)benzamide]"
–,675 nM,"C[C@@H](NC(=O)c1cc(F)c(-c2cn[nH]c2)cc1OCCN(C)C)c1ccccc1 [Example 310, 2-[2-(dimethylamino)ethoxy]-5-fluoro-N-[(1R)-1-phenylethyl]-4-(1H-pyrazol-4-yl)benzamide]"
